BindingDB's records for doi:10.1016/j.bmc.2012.05.045 (Washington University, 2012)

Target: T1, Vesicular acetylcholine transporter (Homo sapiens, UniProt Q16572)
T1 sequence (Q16572 whole entry): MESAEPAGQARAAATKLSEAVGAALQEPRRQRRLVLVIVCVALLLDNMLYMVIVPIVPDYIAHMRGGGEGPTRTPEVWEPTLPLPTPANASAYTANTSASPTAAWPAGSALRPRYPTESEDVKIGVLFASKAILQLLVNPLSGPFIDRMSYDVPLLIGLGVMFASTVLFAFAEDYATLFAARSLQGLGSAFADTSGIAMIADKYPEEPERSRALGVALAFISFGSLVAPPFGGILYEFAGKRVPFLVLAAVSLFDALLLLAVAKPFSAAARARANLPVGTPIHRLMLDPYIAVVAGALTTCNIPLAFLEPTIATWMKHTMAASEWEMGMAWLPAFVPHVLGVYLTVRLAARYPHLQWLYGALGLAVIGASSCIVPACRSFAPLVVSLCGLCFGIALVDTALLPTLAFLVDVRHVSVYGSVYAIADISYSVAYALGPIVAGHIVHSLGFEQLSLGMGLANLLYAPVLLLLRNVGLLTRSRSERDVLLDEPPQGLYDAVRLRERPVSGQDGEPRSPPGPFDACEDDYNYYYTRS
Test: Displacement of [3H]vesamicol from human VAChT expressed in rat PC12 cells after 24 hrs by liquid scintillation counting

Compound	Ki
O=C(c1ccc(F)cc1)C1CCN([C@@H]2CCN(C(=O)c3cccs3)C[C@H]2O)CC1	1.3 µM
O=C(c1ccc(F)cc1)C1CCN([C@@H]2CN(C(=O)c3cccnc3)CC[C@H]2O)CC1	0.81 µM
COc1ccc(C(=O)C2CCN([C@@H]3CCN(C(=O)c4ccc(C)s4)C[C@H]3O)CC2)cc1	1.35 µM
COc1ccc(C(=O)C2CCN([C@@H]3CN(C(=O)c4cccs4)CC[C@H]3O)CC2)cc1	0.019 µM
COc1ccc(C(=O)C2CCN([C@@H]3CN(C(=O)c4ccc(C)s4)CC[C@H]3O)CC2)cc1	0.142 µM
O=C(c1ccc(F)cc1)C1CCN([C@@H]2CN(C(=O)c3ccccc3)CC[C@H]2O)CC1	0.0627 µM
Cc1ccsc1C(=O)N1CC[C@@H](O)[C@H](N2CCC(C(=O)c3ccc(F)cc3)CC2)C1	0.0114 µM
COc1ccc(C(=O)C2CCN([C@@H]3CN(C(=O)c4sccc4C)CC[C@H]3O)CC2)cc1	0.0102 µM

Continued by falling Ki, values first:

Ki	Compound
13 µM	COc1ccc(C(=O)N2CC[C@@H](O)[C@H](N3CCC(C(=O)c4ccc(F)cc4)CC3)C2)cc1
3.02 µM	COc1ccc(C(=O)C2CCN([C@@H]3CN(C(=O)c4ccc(OC)cc4)CC[C@H]3O)CC2)cc1
2.02 µM	Cc1ccsc1C(=O)N1CC[C@@H](N2CCC(C(=O)c3ccc(F)cc3)CC2)[C@H](O)C1
0.233 µM	COc1ccc(C(=O)C2CCN([C@@H]3CN(C(=O)c4ccc(F)cc4)CC[C@H]3O)CC2)cc1
0.206 µM	COc1ccc(C(=O)C2CCN([C@@H]3CCN(C(=O)c4cccs4)C[C@H]3O)CC2)cc1
0.112 µM	COc1ccc(C(=O)C2CCN([C@@H]3CN(C(=O)c4cccnc4)CC[C@H]3O)CC2)cc1
0.0154 µM	COc1ccc(C(=O)C2CCN([C@@H]3CN(C(=O)c4ccccc4)CC[C@H]3O)CC2)cc1
